The subject of series [1] is L1210. As to the kind of experiment: Antitumor activity against L1210 leukemia cells measured as Median survival time at 10 mg/kg. Type of series: functional, Mus musculus.
The test system of a further series is Mus musculus. As to the kind of experiment: Acute toxicity in mice (LD100) after i.p. administration. Type of series: organism-based. Particulars: in vivo, ip.
For series [2], the system named is L1210. As to the kind of experiment: Antitumor activity against L1210 leukemia cells measured as percent increase in life span (% ILS) at 10 mg/kg. Type of series: functional. As to conditions: Mus musculus.
A short description of series [3]: Acute toxicity in mice (LD0) after i.p. administration (highest nontoxic dose). Type of series: organism-based. Particulars: mouse, in vivo, ip; read-out: LD0.
For series [4], the system named is L1210. As to the kind of experiment: Antitumor activity against L1210 leukemia cells measured as range of death at 10 mg/kg; value may range from 14 to 19. Type of series: functional, Mus musculus.
Series [5] concerns L1210. As to the kind of experiment: In vitro cytotoxicity against L1210 cell line as concentration required for 50% inhibition of cell growth. As to conditions: Mus musculus, read-out: ID50 (the source's name). The class given is functional.
For series [6], the system named is L1210. As to the kind of experiment: Cytotoxicity against L1210 tumor cell line, activity is expressed as K (inverse value of drug concentration). The class given is functional, cell-based. As to conditions: Mus musculus.
The test system of series [7] is L1210. As to the kind of experiment: Antitumor activity against L1210 leukemia cells measured as Median survival time at 15 mg/kg. The class given is functional, Mus musculus.
Series [8] has as its system L1210. As to the kind of experiment: Antitumor activity against L1210 leukemia cells measured as range of death at 15 mg/kg; value may range from 12 to 19. The class given is functional, Mus musculus.
For series [9], the system named is L1210. As to the kind of experiment: Antitumor activity against L1210 leukemia cells measured as range of death at 20 mg/kg; value may range from 14 to 17. The class given is functional, Mus musculus.
For series [10], the system named is L1210. As to the kind of experiment: Antitumor activity against L1210 leukemia cells measured as Median survival time at 20 mg/kg. Type of series: functional, Mus musculus.
In series [11] the test system is L1210. As to the kind of experiment: Antitumor activity against L1210 leukemia cells measured as range of death at 10 mg/kg; value may range from 16 to 42. The class given is functional, Mus musculus.
In series [12] the test system is L1210. As to the kind of experiment: Antitumor activity against L1210 leukemia cells measured as range of death at 10 mg/kg; value may range from 12 to 25. Type of series: functional, Mus musculus.
Series [13] deals with L1210. As to the kind of experiment: Antitumor activity against L1210 leukemia cells measured as range of death at 20 mg/kg; value may range from 9 to 12. The class given is functional, Mus musculus.
In series [14] the test system is L1210. As to the kind of experiment: Antitumor activity against L1210 leukemia cells measured as range of death at 10 mg/kg; value may range from 8 to 20. Type of series: functional, Mus musculus.
The test system of series [15] is L1210. As to the kind of experiment: Antitumor activity against L1210 leukemia cells measured as range of death at 10 mg/kg. The class given is functional, Mus musculus.
Series [16] concerns L1210. As to the kind of experiment: Antitumor activity against L1210 leukemia cells measured as range of death at 20 mg/kg; value may range from 14 to 25. Type of series: functional, Mus musculus.
Series [17] relates to L1210. As to the kind of experiment: Antitumor activity against L1210 leukemia cells measured as range of death at 12 mg/kg; value may range from 12 to 14. The class given is functional, Mus musculus.
The test system of series [18] is L1210. As to the kind of experiment: Antitumor activity against L1210 leukemia cells measured as Median survival time at 12 mg/kg. Type of series: functional, Mus musculus.

We go through eleven molecules from ChEMBL document CHEMBL1122434, “Antitumor amino-substituted pyrido[3',4':4,5]pyrrolo[2,3-g]isoquinolines and pyrido[4,3-b]carbazole derivatives: synthesis and evaluation of compounds resulting from new side chain and heterocycle modifications” (J Med Chem, 1983).

Numbered stars: 1 amine (or outer) side, 2 acyl side, 3 side chain; on linkers, the order of the positions; unused ones are H or OH. Bridge positions count the residues as written; N and C are the ends. Square brackets hold non-standard residues; d marks the D form. Peptide text beside a SMILES is read from it. I, II: the chains in the order shown. Actinocin(1to9) = Cc1c2oc3c(C)ccc(C(=O)[*:2])c3nc-2c(C(=O)[*:1])c(N)c1=O; NMeV = CN[C@H](C(=O)O)C(C)C; Sar = CNCC(=O)O

Regarding `CCN(CC)CCCNc1nccc2c(C)c3c(c(C)c12)c1cc(O)ccc1n3C`, the MST in the series with L1210 [1] stood at 16.1 days. In addition, the LD100 in the series on Mus musculus is 25 mg/kg. This molecule also had an ILS at 10 mg/kg with L1210 [2] of 66.5%. In series [3], the MTD worked out at 12 mg/kg. The same molecule returned a Range of death with L1210 [4] of 19 days. Moreover, in the series on L1210 [5], the IC50 came out at 200 nM. The molecule also yielded a K with L1210 [6] of 5 µM⁻¹.
Regarding `CCN(CC)CCCNc1nccc2c(C)c3[nH]c4ccc(OC)cc4c3cc12`, in the series with Mus musculus, the LD100 was determined as 40 mg/kg. This molecule also had an MST in the series with L1210 [7] of 14.3 days. Moreover, in [3], the MTD was found to be 20 mg/kg. In the series with L1210 [5], the IC50 amounted to 5000 nM. In the series with L1210 [8], the Range of death was 19 days. Also, the K with L1210 [6] came to 0.2 µM⁻¹.
For the molecule `Cc1c2ccnc(NCC(O)CO)c2cc2c3c[nH]ccc-3nc12` (configuration not stated), in the series on L1210 [9], the Range of death was found to be 17 days. In the series with L1210 [10], this molecule showed an MST of 16 days. Besides, in the series on Mus musculus, the LD100 is 60 mg/kg. In [3], the MTD was determined as 40 mg/kg. Moreover, the IC50 with L1210 [5] was found to be 250 nM. Besides, the K in the series on L1210 [6] turned out to be 4 µM⁻¹.
On to `CCNCCCNc1nccc2c(C)c3[nH]c4ccncc4c3cc12`, for which the Range of death in the series on L1210 [11] came out at 42 days. In the series with L1210 [1], this molecule registered an MST of 25 days. The LD100 in the series on Mus musculus amounted to 30 mg/kg. Also, the ILS at 10 mg/kg in the series with L1210 [2] came out at 114%. Moreover, the MTD in [3] is 20 mg/kg. In addition, in the series on L1210 [5], the IC50 was determined as 100 nM. Also, in the series with L1210 [6], the K was determined as 10 µM⁻¹.
Turning to `CCNCCCNc1nccc2c(C)c3[nH]c4ccc(OC)cc4c3cc12`, in the series on L1210 [1], the MST is 14.8 days. The LD100 in the series with Mus musculus was 30 mg/kg. Also, the ILS at 10 mg/kg in the series on L1210 [2] amounted to 26%. Further, in the series on L1210 [12], the Range of death worked out at 25 days. In addition, the MTD in [3] was 20 mg/kg. Also, in the series on L1210 [5], the IC50 was 600 nM. Besides, the K in the series with L1210 [6] was 1.7 µM⁻¹.
In the series on L1210 [10], `CCN(CC)CCNc1nccc2c(C)c3c(cc12)c1cc(OC)ccc1n3C` gave an MST of 11 days. In the series on Mus musculus, the LD100 turned out to be 30 mg/kg. For the same molecule, the MTD in series [3] was 20 mg/kg. Further, the IC50 in the series on L1210 [5] was 2000 nM. This molecule also had a Range of death with L1210 [13] of 12 days. Further, the K with L1210 [6] is 0.5 µM⁻¹.
Take `Cc1c2c(NCCCN(C)C)nccc2c(C)c2c1c1cc(O)ccc1n2C`: the Range of death in the series on L1210 [14] was determined as 20 days. This molecule registered an MST in the series with L1210 [1] of 16.3 days. The molecule further registered an LD100 with Mus musculus of 50 mg/kg. In the series with L1210 [2], this molecule returned an ILS at 10 mg/kg of 68%. Also, the MTD in series [3] is 10 mg/kg. In the series with L1210 [5], the IC50 amounted to 30 nM. This molecule also had a K in the series with L1210 [6] of 33 µM⁻¹.
For `COc1ccc2[nH]c3c(C)c4ccnc(NCCCN(CCCl)CCCl)c4cc3c2c1`, the MST in the series with L1210 [1] worked out at 13.6 days. In the series with Mus musculus, this molecule had an LD100 of 20 mg/kg. In the series on L1210 [15], this molecule showed a Range of death of 12 days. This molecule also came in with an ILS at 10 mg/kg in the series with L1210 [2] of 26%. Moreover, the MTD in series [3] came out at 15 mg/kg. In the series on L1210 [5], the IC50 came out at 200 nM. Besides, the K in the series with L1210 [6] was found to be 5 µM⁻¹.
`CCN(CC)CCCNc1nccc2c(C)c3[nH]c4ccncc4c3cc12` [PAZELLIPTINE] showed a Range of death with L1210 [16] of 25 days. Also, in the series on L1210 [10], the MST was 20.5 days. Also, the LD100 with Mus musculus amounted to 30 mg/kg. In addition, in [3], the MTD came out at 25 mg/kg. In the series with L1210 [5], the IC50 is 20 nM. Moreover, in the series with L1210 [6], the K stood at 50 µM⁻¹.
Take `Cc1c2oc3c(C)ccc(C(=O)N[C@@H]4C(=O)N[C@H](C(C)C)C(=O)N5CCC[C@H]5C(=O)N(C)CC(=O)N(C)[C@@H](C(C)C)C(=O)O[C@@H]4C)c3nc-2c(C(=O)N[C@@H]2C(=O)N[C@H](C(C)C)C(=O)N3CCC[C@H]3C(=O)N(C)CC(=O)N(C)[C@@H](C(C)C)C(=O)O[C@@H]2C)c(N)c1=O` [DACTINOMYCIN] (I: T[dV]P[Sar][NMeV] / II: T[dV]P[Sar][NMeV]; ester I:1-I:C, II:1-II:C; linker I:N-II:N via Actinocin(1to9)): the IC50 in the series on L1210 [5] was found to be 1 nM. For the same molecule, the K in the series with L1210 [6] is 1000 µM⁻¹.
As for `CCN(CC)CCCNc1nccc2c(C)c3c(cc12)c1cc(O)ccc1n3C`, the LD100 in the series on Mus musculus came to 25 mg/kg. Moreover, the MTD in series [3] stood at 12.5 mg/kg. Besides, the IC50 with L1210 [5] was found to be 60 nM. In the series with L1210 [6], this molecule gave a K of 16 µM⁻¹. This molecule also returned a Range of death in the series on L1210 [17] of 14 days. In addition, in the series with L1210 [18], the MST came out at 13 days.

By ILS is commonly meant the gain in survival time of treated over control animals, in per cent.
